In ChEMBL document CHEMBL1133889, “Discovery and SAR of org 24598-a selective glycine uptake inhibitor” (Bioorg Med Chem Lett, 2001):

Legend:
[1] = molecular target: T1, Sodium- and chloride-dependent glycine transporter 1 (Homo sapiens, UniProt P48067); assay: Inhibition of [3H]glycine uptake using CHO cells transfected with GlyT-1b transporter; assay type: cell-based
T1 sequence (P48067 whole entry): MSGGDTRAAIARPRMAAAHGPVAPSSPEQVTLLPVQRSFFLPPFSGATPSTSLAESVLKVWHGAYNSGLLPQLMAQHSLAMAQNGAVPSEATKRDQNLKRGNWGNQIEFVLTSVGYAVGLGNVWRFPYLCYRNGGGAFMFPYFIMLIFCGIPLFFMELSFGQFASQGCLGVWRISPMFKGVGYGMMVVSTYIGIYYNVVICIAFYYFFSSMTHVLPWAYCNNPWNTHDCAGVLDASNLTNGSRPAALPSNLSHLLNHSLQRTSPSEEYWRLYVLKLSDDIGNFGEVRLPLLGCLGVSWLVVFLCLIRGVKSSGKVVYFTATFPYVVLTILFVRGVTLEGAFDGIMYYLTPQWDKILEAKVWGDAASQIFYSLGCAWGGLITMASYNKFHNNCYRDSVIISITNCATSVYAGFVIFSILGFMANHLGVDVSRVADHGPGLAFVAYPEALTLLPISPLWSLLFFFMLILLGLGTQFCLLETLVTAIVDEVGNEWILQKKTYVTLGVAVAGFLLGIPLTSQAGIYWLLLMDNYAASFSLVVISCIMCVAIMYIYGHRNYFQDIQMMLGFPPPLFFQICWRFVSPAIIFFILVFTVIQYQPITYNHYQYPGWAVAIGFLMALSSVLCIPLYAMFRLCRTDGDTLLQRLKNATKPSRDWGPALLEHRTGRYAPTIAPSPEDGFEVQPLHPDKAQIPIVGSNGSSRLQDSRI

[2] = molecular target: T2, 5-hydroxytryptamine receptor 1A (Rattus norvegicus, UniProt P19327); assay: Binding affinity of compound towards 5-hydroxytryptamine 1A receptor was determined
T2 sequence (P19327 whole entry): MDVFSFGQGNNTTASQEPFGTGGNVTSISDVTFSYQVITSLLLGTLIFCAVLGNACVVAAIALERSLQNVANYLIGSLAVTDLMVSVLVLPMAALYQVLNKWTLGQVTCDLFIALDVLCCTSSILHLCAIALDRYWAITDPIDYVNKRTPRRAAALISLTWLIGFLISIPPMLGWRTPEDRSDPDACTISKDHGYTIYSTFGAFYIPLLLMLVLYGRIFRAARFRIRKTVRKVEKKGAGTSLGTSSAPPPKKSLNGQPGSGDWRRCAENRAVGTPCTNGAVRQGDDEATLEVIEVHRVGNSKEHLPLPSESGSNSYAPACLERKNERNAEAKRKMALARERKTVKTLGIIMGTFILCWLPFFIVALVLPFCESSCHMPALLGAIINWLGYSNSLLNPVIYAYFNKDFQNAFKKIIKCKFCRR

[3] = molecular target: T3, 5-hydroxytryptamine receptor 2C (Rattus norvegicus, UniProt P08909); assay: Binding affinity of compound towards serotonin 5-hydroxytryptamine 2C receptor was determined
T3 sequence (P08909 whole entry): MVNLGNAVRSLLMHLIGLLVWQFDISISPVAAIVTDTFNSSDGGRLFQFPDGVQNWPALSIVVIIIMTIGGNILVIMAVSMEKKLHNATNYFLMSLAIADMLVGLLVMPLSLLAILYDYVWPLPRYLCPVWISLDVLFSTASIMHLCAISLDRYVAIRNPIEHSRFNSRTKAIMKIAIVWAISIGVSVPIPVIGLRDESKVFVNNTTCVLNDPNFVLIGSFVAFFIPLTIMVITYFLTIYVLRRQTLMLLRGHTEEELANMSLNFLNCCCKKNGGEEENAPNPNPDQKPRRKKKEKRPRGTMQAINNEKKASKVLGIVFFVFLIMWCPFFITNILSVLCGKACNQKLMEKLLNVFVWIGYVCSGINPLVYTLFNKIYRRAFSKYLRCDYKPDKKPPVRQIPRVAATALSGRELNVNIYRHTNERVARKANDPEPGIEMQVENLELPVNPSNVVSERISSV

[4] = molecular target: 5-hydroxytryptamine receptor 2A (Rattus norvegicus, UniProt P14842); assay: Binding affinity of compound towards serotonin 5-hydroxytryptamine 2A receptor was determined
Sequence of 5-hydroxytryptamine receptor 2A (P14842 whole entry): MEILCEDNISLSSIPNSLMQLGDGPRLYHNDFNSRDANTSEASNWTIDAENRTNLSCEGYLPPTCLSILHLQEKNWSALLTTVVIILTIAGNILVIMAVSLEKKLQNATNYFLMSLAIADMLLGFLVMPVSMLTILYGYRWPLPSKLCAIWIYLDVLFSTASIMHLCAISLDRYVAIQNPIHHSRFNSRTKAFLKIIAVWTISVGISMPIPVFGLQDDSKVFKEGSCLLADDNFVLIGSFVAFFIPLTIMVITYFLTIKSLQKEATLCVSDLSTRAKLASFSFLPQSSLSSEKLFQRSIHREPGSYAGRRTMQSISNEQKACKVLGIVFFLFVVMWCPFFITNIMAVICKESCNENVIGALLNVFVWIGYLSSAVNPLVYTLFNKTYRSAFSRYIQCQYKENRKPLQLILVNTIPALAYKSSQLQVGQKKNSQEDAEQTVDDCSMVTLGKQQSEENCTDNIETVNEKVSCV

[5] = molecular target: 5-hydroxytryptamine receptor 7 (Rattus norvegicus, UniProt P32305); assay: Binding affinity of compound towards serotonin 5-hydroxytryptamine 7 receptor was determined
Sequence of 5-hydroxytryptamine receptor 7 (P32305 whole entry): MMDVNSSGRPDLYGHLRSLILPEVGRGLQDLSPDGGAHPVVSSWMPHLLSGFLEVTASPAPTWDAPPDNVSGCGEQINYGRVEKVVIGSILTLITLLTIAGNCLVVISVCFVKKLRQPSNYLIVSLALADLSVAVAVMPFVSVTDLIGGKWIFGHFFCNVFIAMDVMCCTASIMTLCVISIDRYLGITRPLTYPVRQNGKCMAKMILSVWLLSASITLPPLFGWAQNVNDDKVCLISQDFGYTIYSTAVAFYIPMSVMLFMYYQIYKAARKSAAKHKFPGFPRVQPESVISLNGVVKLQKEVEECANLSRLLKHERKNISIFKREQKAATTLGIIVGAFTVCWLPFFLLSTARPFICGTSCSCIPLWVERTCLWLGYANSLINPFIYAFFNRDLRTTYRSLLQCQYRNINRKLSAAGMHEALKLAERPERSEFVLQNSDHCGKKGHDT

[6] = molecular target: 5-hydroxytryptamine receptor 6 (Rattus norvegicus, UniProt P31388); assay: Binding affinity of compound towards serotonin 5-hydroxytryptamine 6 receptor was determined
Sequence of 5-hydroxytryptamine receptor 6 (P31388 whole entry): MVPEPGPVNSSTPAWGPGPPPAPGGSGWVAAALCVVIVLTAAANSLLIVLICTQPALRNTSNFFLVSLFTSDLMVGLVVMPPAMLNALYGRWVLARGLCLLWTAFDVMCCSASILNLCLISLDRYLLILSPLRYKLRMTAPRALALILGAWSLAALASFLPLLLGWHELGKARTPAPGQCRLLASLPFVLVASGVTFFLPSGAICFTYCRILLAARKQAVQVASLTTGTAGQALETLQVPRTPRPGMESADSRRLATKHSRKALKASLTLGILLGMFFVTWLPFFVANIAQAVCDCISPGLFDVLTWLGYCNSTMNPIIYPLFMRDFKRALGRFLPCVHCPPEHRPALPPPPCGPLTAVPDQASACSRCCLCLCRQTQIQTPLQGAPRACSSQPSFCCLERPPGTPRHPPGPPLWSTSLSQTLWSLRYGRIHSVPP

[7] = molecular target: T4, Alpha-2C adrenergic receptor (Homo sapiens, UniProt P18825); assay: Binding affinity of compound towards Alpha-2C adrenergic receptor was determined
T4 sequence (P18825 whole entry): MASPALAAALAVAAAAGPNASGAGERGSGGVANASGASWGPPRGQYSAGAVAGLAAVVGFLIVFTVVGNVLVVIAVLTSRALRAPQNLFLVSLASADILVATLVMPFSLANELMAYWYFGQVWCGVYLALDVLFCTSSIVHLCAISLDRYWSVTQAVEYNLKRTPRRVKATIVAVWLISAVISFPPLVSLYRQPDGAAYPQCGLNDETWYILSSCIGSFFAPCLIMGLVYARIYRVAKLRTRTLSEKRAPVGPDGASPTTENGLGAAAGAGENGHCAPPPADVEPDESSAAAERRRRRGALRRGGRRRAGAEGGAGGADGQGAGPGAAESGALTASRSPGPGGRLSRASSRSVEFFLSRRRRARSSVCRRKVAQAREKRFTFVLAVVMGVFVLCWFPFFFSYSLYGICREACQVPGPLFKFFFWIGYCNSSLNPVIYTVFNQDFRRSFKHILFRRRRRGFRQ

[8] = molecular target: T5, Alpha-1A adrenergic receptor (Homo sapiens, UniProt P35348); assay: Binding affinity of compound towards Binding affinity towards Alpha-1A adrenergic receptor was determined
T5 sequence (P35348 whole entry): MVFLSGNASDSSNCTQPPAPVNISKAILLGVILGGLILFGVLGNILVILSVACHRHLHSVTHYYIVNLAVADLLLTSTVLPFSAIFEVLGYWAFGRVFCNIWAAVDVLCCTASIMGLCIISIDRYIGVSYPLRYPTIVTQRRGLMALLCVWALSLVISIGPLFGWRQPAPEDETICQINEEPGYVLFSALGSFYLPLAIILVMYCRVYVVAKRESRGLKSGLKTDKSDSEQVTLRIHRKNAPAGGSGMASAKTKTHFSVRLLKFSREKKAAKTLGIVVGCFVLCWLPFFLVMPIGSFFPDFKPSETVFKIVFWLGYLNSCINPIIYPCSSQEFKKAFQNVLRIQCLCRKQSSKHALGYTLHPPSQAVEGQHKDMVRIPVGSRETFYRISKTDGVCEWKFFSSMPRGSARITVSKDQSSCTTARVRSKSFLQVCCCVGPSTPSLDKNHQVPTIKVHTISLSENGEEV

[9] = molecular target: Beta-2 adrenergic receptor (Homo sapiens, UniProt P07550); assay: Binding affinity of compound towards Beta-2 adrenergic receptor was determined
Sequence of Beta-2 adrenergic receptor (P07550 whole entry): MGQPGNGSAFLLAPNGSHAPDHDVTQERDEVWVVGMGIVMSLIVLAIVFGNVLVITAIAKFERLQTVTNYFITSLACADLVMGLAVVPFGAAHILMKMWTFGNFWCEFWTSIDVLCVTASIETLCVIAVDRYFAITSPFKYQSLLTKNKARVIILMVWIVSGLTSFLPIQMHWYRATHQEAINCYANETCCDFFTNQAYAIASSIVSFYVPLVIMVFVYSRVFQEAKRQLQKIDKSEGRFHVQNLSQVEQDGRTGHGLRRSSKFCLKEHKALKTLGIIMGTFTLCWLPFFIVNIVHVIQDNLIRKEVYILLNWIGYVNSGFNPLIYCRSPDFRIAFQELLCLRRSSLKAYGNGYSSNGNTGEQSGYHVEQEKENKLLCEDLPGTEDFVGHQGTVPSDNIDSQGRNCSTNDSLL

D(4) dopamine receptor = molecular target: T6, D(4) dopamine receptor (Rattus norvegicus, UniProt P30729); assay: Binding affinity of compound towards Dopamine receptor D4 was determined
T6 sequence (P30729 whole entry): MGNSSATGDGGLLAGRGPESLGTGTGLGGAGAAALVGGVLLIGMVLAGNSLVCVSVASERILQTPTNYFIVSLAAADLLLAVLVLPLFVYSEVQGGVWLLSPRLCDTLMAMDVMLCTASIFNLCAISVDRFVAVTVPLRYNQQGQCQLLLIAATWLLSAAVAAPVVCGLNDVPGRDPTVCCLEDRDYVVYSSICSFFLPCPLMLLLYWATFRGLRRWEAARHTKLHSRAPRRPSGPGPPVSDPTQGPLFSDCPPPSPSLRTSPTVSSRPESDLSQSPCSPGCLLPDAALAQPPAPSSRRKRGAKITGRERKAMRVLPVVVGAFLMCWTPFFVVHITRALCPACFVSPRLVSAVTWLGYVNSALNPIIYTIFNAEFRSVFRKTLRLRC

Glutamate NMDA receptor = assay: Binding affinity to NMDA glycine co-agonist site with [3H]-MDL- 105,519 as radioligand in rat brain membrane; assay type: cell membranes
Rattus norvegicus [10] = species on record: Rattus norvegicus; assay: Inhibition of [3H]- dopamine uptake in rat brain; assay type: functional, organism-based
Rattus norvegicus [11] = species on record: Rattus norvegicus; assay: Inhibition of [3H]- noradrenaline uptake in rat brain; assay type: functional, organism-based
Rattus norvegicus [12] = species on record: Rattus norvegicus; assay: Inhibition of [3H]- serotonin uptake in rat brain; assay type: functional, organism-based
[13] = molecular target: Beta-1 adrenergic receptor (Homo sapiens, UniProt P08588); assay: Binding affinity of compound towards Beta-1 adrenergic receptor was determined
Sequence of Beta-1 adrenergic receptor (P08588 whole entry): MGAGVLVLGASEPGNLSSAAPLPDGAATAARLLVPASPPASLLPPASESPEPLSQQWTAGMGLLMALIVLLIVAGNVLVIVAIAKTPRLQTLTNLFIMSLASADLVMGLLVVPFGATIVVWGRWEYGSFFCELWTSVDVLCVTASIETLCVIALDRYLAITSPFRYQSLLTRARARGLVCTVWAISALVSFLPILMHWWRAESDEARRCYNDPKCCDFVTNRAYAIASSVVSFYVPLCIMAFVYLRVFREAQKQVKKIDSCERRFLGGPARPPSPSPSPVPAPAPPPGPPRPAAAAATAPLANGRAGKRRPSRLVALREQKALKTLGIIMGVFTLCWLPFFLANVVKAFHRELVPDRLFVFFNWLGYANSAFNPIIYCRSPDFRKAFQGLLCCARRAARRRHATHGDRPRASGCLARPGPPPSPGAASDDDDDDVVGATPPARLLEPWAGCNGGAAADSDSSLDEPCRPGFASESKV

D(2) dopamine receptor = D(2) dopamine receptor (Rattus norvegicus, UniProt P61169); assay: Binding affinity of compound towards Dopamine receptor D2S was determined
Sequence of D(2) dopamine receptor (P61169 whole entry): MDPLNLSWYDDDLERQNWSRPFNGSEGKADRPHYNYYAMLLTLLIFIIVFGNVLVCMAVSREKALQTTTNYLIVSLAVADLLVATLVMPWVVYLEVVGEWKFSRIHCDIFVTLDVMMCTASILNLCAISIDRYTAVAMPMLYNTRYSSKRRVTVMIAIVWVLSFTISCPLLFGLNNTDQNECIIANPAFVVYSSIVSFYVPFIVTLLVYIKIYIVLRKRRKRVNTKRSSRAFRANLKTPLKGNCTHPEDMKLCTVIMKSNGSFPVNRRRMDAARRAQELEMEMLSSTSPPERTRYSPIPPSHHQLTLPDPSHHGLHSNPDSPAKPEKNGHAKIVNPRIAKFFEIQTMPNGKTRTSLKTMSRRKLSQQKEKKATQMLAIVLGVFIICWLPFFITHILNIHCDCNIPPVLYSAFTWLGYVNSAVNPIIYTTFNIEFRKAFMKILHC

[14] = molecular target: T7, Alpha-1B adrenergic receptor (Homo sapiens, UniProt P35368); assay: The compound was tested for the binding affinity towards Alpha-1B adrenergic receptor
T7 sequence (P35368 whole entry): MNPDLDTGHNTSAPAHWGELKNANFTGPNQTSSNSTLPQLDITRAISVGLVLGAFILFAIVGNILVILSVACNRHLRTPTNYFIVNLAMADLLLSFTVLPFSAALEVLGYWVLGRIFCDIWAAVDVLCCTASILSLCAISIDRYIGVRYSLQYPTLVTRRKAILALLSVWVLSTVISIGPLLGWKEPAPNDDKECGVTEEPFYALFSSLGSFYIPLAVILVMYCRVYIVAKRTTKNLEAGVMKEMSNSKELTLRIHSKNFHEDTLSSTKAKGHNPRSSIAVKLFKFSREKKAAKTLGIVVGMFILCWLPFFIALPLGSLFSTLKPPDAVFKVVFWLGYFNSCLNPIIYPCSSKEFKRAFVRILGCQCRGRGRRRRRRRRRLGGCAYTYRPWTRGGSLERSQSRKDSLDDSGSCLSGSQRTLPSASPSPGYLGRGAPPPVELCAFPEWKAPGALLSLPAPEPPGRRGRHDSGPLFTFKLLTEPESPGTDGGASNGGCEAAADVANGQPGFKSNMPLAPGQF

Rattus norvegicus [15] = species on record: Rattus norvegicus; assay: Inhibition of [3H]- GABA uptake in rat brain; assay type: functional, organism-based

| IC50 [1] | SMILES | further results |
| --- | --- | --- |
| 5.01 µM | CCN(CCC(Oc1ccc(C(F)(F)F)cc1)c1ccccc1)CC(=O)O (stereo not given) | – |
| 20 µM | COc1ccccc1OC(CCN(C)CC(=O)O)c1ccccc1 (stereo not given) | – |
| 2.63 µM | CN(CC[C@H](Oc1ccc(C(F)(F)F)cc1)c1ccccc1)CC(=O)O | – |
| 2.51 µM | Cc1ccc(OC(CCN(C)CC(=O)O)c2ccccc2)cc1 (stereo not given) | – |
| 100 µM | CN(CCC(Oc1ccc(S(C)(=O)=O)cc1)c1ccccc1)CC(=O)O (stereo not given) | – |
| 0.398 µM | CN(CCC(Oc1ccc(Cl)c(C(F)(F)F)c1)c1ccccc1)CC(=O)O (stereo not given) | – |
| 100 µM | CN(CCCC(=O)O)CCC(Oc1ccc(C(F)(F)F)cc1)c1ccccc1 (stereo not given) | – |
| 0.251 µM | CN(CCC(Oc1ccc(C(F)(F)F)cc1)c1ccc(F)cc1)CC(=O)O (stereo not given) | – |
| 0.501 µM | COc1ccc(C(CCN(C)CC(=O)O)Oc2ccc(C(F)(F)F)cc2)cc1 (stereo not given) | – |
| 12.6 µM | CN(CCC(Oc1ccccc1Cl)c1ccccc1)CC(=O)O (stereo not given) | – |
| 0.447 µM | CN(CC[C@@H](Oc1ccc(C(C)(C)C)cc1)c1ccccc1)CC(=O)O | – |
| 1 µM | CN(CCC(Cc1ccc(C(F)(F)F)cc1)c1ccccc1)CC(=O)O (stereo not given) | – |
| 0.1 µM | CN(CCC(Oc1ccc(C(F)(F)F)cc1)c1ccc(Cl)cc1)CC(=O)O (stereo not given) | – |
| 3.98 µM | COc1ccc(OC(CCN(C)CC(=O)O)c2ccccc2)cc1 (stereo not given) | – |
| 0.977 µM | CN(CC[C@H](Oc1ccc(-c2ccccc2)cc1)c1ccccc1)CC(=O)O | – |
| 1.26 µM | CN(CCC(Oc1ccc(Cl)cc1)c1ccccc1)CC(=O)O (stereo not given) | – |
| 11.7 µM | CN(CC[C@H](Oc1ccc(C(C)(C)C)cc1)c1ccccc1)CC(=O)O | – |
| 0.316 µM | CN(CCC(Oc1ccc(C(F)(F)F)cc1)c1ccccc1)CC(=O)O (stereo not given) | – |
| 31.6 µM | CN(CCC(=O)O)CCC(Oc1ccc(C(F)(F)F)cc1)c1ccccc1 (stereo not given) | – |
| 0.501 µM | CN(CCC(Oc1ccc(Cl)c(Cl)c1)c1ccccc1)CC(=O)O (stereo not given) | – |
| 2.51 µM | CN(CCC(Oc1cccc(C(F)(F)F)c1)c1ccccc1)CC(=O)O (stereo not given) | – |
| 0.151 µM | CN(CC[C@@H](Oc1ccc(-c2ccccc2)cc1)c1ccccc1)CC(=O)O | – |
| 0.126 µM | CN(CC[C@@H](Oc1ccc(C(F)(F)F)cc1)c1ccccc1)CC(=O)[O-].[Li+] | Ki [2]: > 10 µM; Ki [3]: > 10 µM; Ki [4]: > 10 µM; Ki [5]: > 10 µM; Ki [6]: > 10 µM; Ki [7]: > 10 µM; Ki [8]: > 10 µM; Ki [9]: > 10 µM; Ki (D(4) dopamine receptor): > 10 µM; Log Ki (Glutamate NMDA receptor): > -4; IC50 (Rattus norvegicus [10]): > 100 µM; IC50 (Rattus norvegicus [11]): > 100 µM; IC50 (Rattus norvegicus [12]): 50.1 µM; Ki [13]: > 10 µM; Ki (D(2) dopamine receptor): > 10 µM; Ki [14]: > 10 µM; IC50 (Rattus norvegicus [15]): > 100 µM |
